Data set [1] in a line: Sensory evaluation of sweeteners in iced tea. The format is in vivo. The note with it: 200 ml serving, aspartame 450 ppm, monatin 40 ppm, panel n=6. The protocol: Monatin formulations, including R,R monatin or R,R monatin/erythritol combinations, were assessed relative to other known sweeteners (aspartame and sucralose) in iced tea. The key sensory parameters assessed included sweetness quality, aftertaste, bitter taste and its aftertaste. Qualitative evaluation has been carried out.
An ice tea formulation was developed to evaluate sweetener performance (Table 7).
Sweeteners were added to tea at the following concentrations:
The evaluation of ice tea drinks was carried out by a panel (n=6) of experienced sensory evaluators.

Data set [2] is described as follows: Sensory evaluation of chewing gums (quality and time-intensity of sweetness). The format is in vivo. The note with it: in chewing gum, versus aspartame or sucralose. How it is done:
Chewing gums sweetened individually with monatin, aspartame and sucralose were prepared in stick gum format of mint flavor. The gums were prepared to be iso-sweet and evaluated for quality of sweet taste and time-intensity of sweetness delivery.
A standard method of manufacture was adopted for all three gum formulations, as described.
The method of gum manufacture was as follows: • Pre-warm the gum base to 40-45° C. and then add to Z-blade mixer and mix • Sieve sorbitol powder • Remove a portion of the sorbitol, disperse sweetener in that portion and mix thoroughly • Return sweetener/sorbitol mix to remaining bulk of sorbitol powder and mix thoroughly • Mix lycasin and glycerol into a bowl and pre-heat to 50° C. • Add sorbitol powder to the Z-blade mixer containing the gum base • Add lycasin/glycerol and flavor to the Z-blade and mix for 20 minutes • Remove gum from Z-blade mixer • Roll to a thickness of 1.5 mm using a mechanical roller • Dust with talc in the ratio 3 g talc to 100 g gum • Cut into sticks measuring 19 mm×73 mm • Wrap individual sticks in foil Sensory Evaluation
Chewing gum compositions were evaluated by a panel of trained sensory assessors (n 4), all very experienced in the formal sensory evaluation of chewing gums, including an evaluation for time/intensity parameters. Qualitative and temporal characteristics of the gum's flavor and sweetness were evaluated.

Data set [3] in a line: Stability of monatin at high temperature (80° C.) and neutral pH, LC-MS. The class given is physicochemical. The note with it: pH 7, 75 ppm, after 7-35 days, synthetic ~96% 2R,4R/2S,4S. How it is done: A 100 milliliter solution of 75 ppm monatin at pH 7 was used as a stock solution. The synthetic monatin sample contained approximately 96% of the 2R,4R/2S,4S enantiomeric pair and 4% of the 2R,4S/2S,4R enantiomeric pair. Samples were incubated at 80° C. and pH 7 for the duration of the experiment and samples were withdrawn at 0, 1, 2, 3, 4 hours and 1, 2, 4, 7, 14, 21 and 35 days. All experimental conditions were run in duplicate.
A response curve was established for both detected diastereomer peaks of the synthetic monatin. A range of 5-150 ppm was bracketed with the synthetic monatin standard dissolved in DI water. Separation of the two diastereomer peaks was accomplished using a 3.9×150 mm Novapak C18 (Waters Corporation) HPLC column. Ultraviolet-Visible (UV) and Mass Spectrometer (MS) detectors were used in series for detection and quantitation. Monatin and its lactone peak each have a UVmax at 279 nm that aided in precise detection. Quantification was done by acquiring Selected Ion Monitoring (SIM) scan of 293.3 m/z and 275.3 m/z in positive-ion electrospray mode.

Data set [4] in a line: Stability of monatin at pH 3 with increasing temperatures. The class given is physicochemical. The note with it: synthetic monatin. The protocol:
A sample of synthetic monatin was subjected to pH 3 at temperatures of 25° C., 50° C. and 100° C. At room temperature and pH 3, a 14% loss in monatin was observed over a period of 48 hours. This loss was attributed to lactone formation. At 50° C. and pH 3, a 23% loss in monatin was observed over a period of 48 hours. This loss was attributed to lactone formation and the buildup of an unknown compound after about 15.5 minutes. […] The major detectable component was an unknown at 15.5 minutes.

`NC(CC(O)(Cc1c[nH]c2ccccc12)C(=O)O)C(=O)O` (stereo not drawn) [Monatin, 2-hydroxy-2-(indol-3-ylmethyl)-4-aminoglutaric acid]: in data set [1], the “Comments: flavor enhancement (lemon flavor notes)” value is listed as “enhanced the lemon flavor notes”. For the same compound, the “time/intensity profile for sweetness” value in data set [2] is on record as “very clearly superior to either aspartame or sucralose”. Further, the degree of degradation result in data set [3] is on record as “insignificant”. The loss in monatin in data set [4] (50° C., pH 3, 48 hours) was 23%; in data set [4] (100° C., pH 3, after 24 hours) it was “nearly all monatin was lost”; in data set [4] (room temperature (25° C.), pH 3, 48 hours), 14%.

Source of the values: US20050170041A1, “Chewing gum compositions comprising monatin and methods for making same” (Cargill, Inc., priority 2003, published 2005).
